# In patent US20220202811A1, “TREATMENT FOR RETINOIC ACID RECEPTOR-RELATED ORPHAN RECEPTOR Ɣ (RORƔ)-DEPENDENT CANCERS” (The Regents of the University of California, priority 2019, published 2022):
# Columns and labels:
# PDX1356 xenografts = PDX1356 xenografts in mice; type: in vivo, human
# From the text: Finally, the impact of JTE-151 was examined in vivo on mice bearing primary patient-derived pancreatic cancer xenografts (FIGS. 70-78). […] FIGS. 70-72 show 3 rounds of treatment in an experiment using mice bearing PDX1356 xenographs. The horizontal axis of the first panel in each of FIGS. 70-72 represents days of treatment, and the vertical axis represents tumor volume. The horizontal axis of each of the remaining panels represents the target (vehicle vs. JTE-151 mouse), and the vertical axis represents the specified measurement. JTE-151 was given at the regimen as specified in the figures. For example, in the first round (FIG. 70), JTE-151 was given at 90 mg/kg body weight once per day for the first 25 days, then twice per day from day 26 though day 40.
# pancreatic cancer cell = experiment: in vivo tumor growth, antagonists of Table 2; design: species or system mouse; conditions: extent of growth suppression relative to control
# KP^f/fC cells = experiment: pancreatic tumorsphere formation assay; type: cell-based, mouse; conditions: SR2211 vs vehicle
# Protocol: Pancreatic tumorsphere formation assays were performed and modified from (Rovira et al., 2010). Briefly, low-passage (<6 passages) WT or REM2-KP^f/fC cell lines were infected with lentiviral particles containing shRNAs; positively infected (red) cells were sorted 72 hours after transduction. 100-300 infected cells were suspended in tumorsphere media: 100 μl DMEM F-12 (Gibco, Life Technologies) containing 1× B-27 supplement (Gibco, Life Technologies), 3% FBS, 100 μM B-mercaptoethanol (Gibco, Life Technologies), 1× non-essential amino acids (Gibco, Life Technologies), 1× N2 supplement (Gibco, Life Technologies), 20 ng/ml EGF (Gibco, Life Technologies), 20 ng/ml bFGF2 (Gibco, Life Technologies), and 10 ng/ml ESGRO mLIF (Thermo Fisher). Cells in media were plated in 96-well ultra-low adhesion culture plates (Costar) and incubated at 37° C. for 7 days. KP^f/fC in vitro tumorsphere formation studies were conducted at a minimum of n=3 independent wells per cell line across two independent shRNA of n=3 wells; however, the majority of these experiments were additionally completed in >1 independently-derived cell lines n=3, at n=3 wells per shRNA.
# [1] = test system: Msi2-reporter+ stem cells; experiment: live imaging of REM2-KP^f/fC tumors; type: in vivo, mouse
# Protocol: For imaging, mice were anesthetized by intraperitoneal injection of ketamine and xylazine (100/20 mg/kg). In order to visualize blood vessels and nuclei, mice were injected retro-orbitally with AlexaFluor 647 anti-mouse CD144 (VE-cadherin) antibody and Hoechst 33342 immediately following anesthesia induction. After 25 minutes, pancreatic tumors were removed and placed in HBSS containing 5% FBS and 2 mM EDTA. 80-150 μm images in 1024×1024 format were acquired with an HCX APO L20× objective on an upright Leica SP5 confocal system using Leica LAS AF 1.8.2 software. GFP cluster sizes were measure using ImageJ 1.51s software. 2 mice per treatment group were analyzed in this study; 6-10 frames were analyzed per mouse.
# [2] = test system: primary patient-derived organoids; experiment: primary patient-derived organoids, SR2211; type: cell-based, human; conditions: following SR2211 treatment
# Protocol: Primary patient organoids were established and provided by Dr. Andrew Lowy. Briefly, patient-derived xenografts were digested for 1 hour at 37° C. in RPMI containing 2.5% FBS, 5 mg/ml Collagenase II, and 1.25 mg/ml Dispase II, then passaged through a […] mesh filter. Cells were plated at a density of 1.5×10^5 cells per 50 μl Matrigel. After domes were solidified, growth medium was added as follows: RPMI containing 50% Wnt3a conditioned media, 10% R-Spondinl-conditioned media, 2.5% FBS, 50 ng/ml EGF, 5 mg/ml Insulin, 12.5 ng/ml hydrocortisone, and 14 μM Rho Kinase Inhibitor. After establishment, organoids were passaged and maintained as previously described (Boj et al., 2015). Briefly, organoids were isolated using Cell Recovery Solution (Corning 354253), then dissociated into single cell suspensions with TrypLE Express (ThermoFisher 12604) supplemented with 25 μg/ml DNase I (Roche) and 14 μM Rho Kinase Inhibitor (Y-27632, Sigma). Cells were split 1:2 into 20 μl domes plated on pre-warmed 48 well plates. Domes were incubated at 37° C. for 5 min, then covered with human complete organoid feeding media (Boj et al., 2015) without Wnt3a-conditioned media. […] Organoids were grown in the presence of vehicle or SR2211 for 7 days, then imaged and quantified, n=3 independent wells plated per dose per treatment group. […] Organoids were counted and measured using ImageJ 1.51s software.
# [3] = test system: primary patient derived xenografts; experiment: primary patient derived xenografts, SR2211; conditions: human
# Protocol: Subcutaneous tumor dimensions were measured with calipers 1-2× weekly.
# [4] = first round: JTE-151 90 mg/kg once per day for 25 days, then twice per day to day 40
# [5] = third round: JTE-151 90 mg/kg once per day
SMILES,"tumor growth rate (PDX1356 xenografts; 3 experiments, slope compared to control (FIG. 73))",EpCam+ tumor epithelial cells (PDX1356 xenografts; [4]),EpCam+/CD133+ tumor stem cells (PDX1356 xenografts; [4]),cell count (PDX1356 xenografts; [4]),tumor growth (PDX1356 xenografts; [4]),EpCam+ tumor epithelial cells (PDX1356 xenografts; [5]),EpCam+/CD133+ tumor stem cells (PDX1356 xenografts; [5]),in vivo tumor growth (pancreatic cancer cell),sphere formation (KP^f/fC cells),"necrosis in surrounding tissues ([1]; mouse, in vivo)",large stem cell clusters ([1]; within 1 week of treatment),reduction in total organoid volume [2],tumor growth in vivo [3]
"Cc1ccc(NC(=O)C[C@H](CCC(=O)O)c2noc([C@H]3C[C@@H](CC(C)(C)C)C3)c2C2CC2)c(Cl)c1 [JTE-151, (4S)-6-[(2-chloro-4-methylphenyl)amino]-4-{4-cyclopropyl-5-[cis-3-(2,2-dimethylpropyl)cyclobutyl]isoxazol-3-yl}-6-oxohexanoic acid]",generally slower,lower,lower,decreased,reduced,reduced,reduced,–,–,–,–,–,–
OC(c1ccc(-c2ccc(CN3CCN(Cc4ccncc4)CC3)cc2)c(F)c1)(C(F)(F)F)C(F)(F)F [SR2211],–,–,–,–,–,–,–,✓✓ (dose response observed; growth suppressed by less than 4-fold relative to control),decreased,no increased necrosis,striking depletion,~300 fold,marked reduction
